Key:
E. uro-grandis A = experiment: Rooting of cuttings, oxidized glutathione solution sprayed to supporter; format: in vivo, crossbreed of eucalyptus urophylla and eucalyptus grandis; settings: three weeks
Experimental: A crossbreed of eucalyptus urophylla and eucalyptus grandis (hereinafter, abbreviated as an “E. uro-grandis”) (Line name: A) was used as a material of a cutting. Specifically, a graft grown to have a length of about 5 cm to 20 cm, about one to three joints, and about two to six leaves was cut out from a mother tree, and a tip of each leaf was cut off by cutting off about a half from the tip thereof. In this way, the cutting was prepared.
A composite soil of carbonized chaff, coconut fiber, and vermiculite which had been put into a seedling pot (3 cm in inner diameter×15 cm in height) in advance was used as a supporter. Oxidized glutathione was dissolved in water so that an oxidized glutathione concentration became 50 mg/L. The oxidized glutathione solution was thus prepared. The oxidized glutathione solution was sprayed to the seedling pot from the above by use of a watering can so that the supporter was soaked with the oxidized glutathione solution (50 mg/L) by spraying a spray amount of water of about 8.5 ml of the oxidized glutathione solution per seedling pot. Thereafter, a base of the cutting was planted to the supporter. After this planting, the cutting was bred for three weeks in a green house which shielded sunlight by 50%. In the green house, a high humidity (80% or more) was kept by frequently spraying mist. After three weeks from the planting, a rooting ratio was calculated from the number of rooted cuttings.
A seedling was bred in the same way as Example 4, except that a solution having an oxidized glutathione concentration of 200 mg/L was used as the oxidized glutathione solution.
A seedling was bred in the same way as Example 4, except that a solution having an oxidized glutathione concentration of 500 mg/L was used as the oxidized glutathione solution.
A seedling was bred in the same way as Example 4, except that a solution having an oxidized glutathione concentration of 1000 mg/L was used as the oxidized glutathione solution.

Tea plant = experiment: Rooting of tea plant cuttings, granule oxidized glutathione mixed with composite soil; format: in vivo; settings: mix with soil; for Rooting rate (%): 462 test pieces; for Number of rooted shoots: of 462 test pieces
Experimental: Oxidized glutathione was prepared in such a way that 1% granule oxidized glutathione was mixed with a composite soil was used. Specifically, 1% granule oxidized glutathione of 15 g was mixed with a composite soil of peat moss and vermiculite (5.5 L), and was then put into a seedling pot (3 cm in inner diameter×15 cm in height×66 holes). This seedling pot served as a supporter. A four-diluted MS medium (Composition: ammonium nitrate of 412.5 mg/L, potassium nitrate of 475 mg/L, sodium dihydrogenphosphate of 42.52 mg/L, and potassium iodide of 0.21 mg/L. Note that a carbon source was not added to this medium.) to which IBA serving as a plant hormone of 10 mg/L was added was sprayed from the above the seedling pot by use of a watering can so that the supporter was soaked with the four-diluted MS medium.
Tea plant was used as a material for a cutting. Specifically, a cutting grown to have a length of about 5 cm to 20 cm, about one to three joints, about one to six leaves was cut out from a mother tree, and a tip of each leaf was cut off. In this way, the cutting was adjusted and prepared.
A base of the cutting thus adjusted and prepared was planted to a supporter (66 cuttings were planted per seedling pot). After this planting, the shoot was cultured for one and half months in a carbon dioxide gas concentration of 1000 ppm, a temperature of 25° C., and a humidity of 60% having a wavelength component of 650 nm to 670 nm to a wavelength component of 450 nm to 470 nm at a ratio of 8.2:1.8 under irradiation of red light having photosynthesis photon flux density of 51.3 μmol/m^2/S. After that, the seedling pot was moved to a green house, and was bred for two and half months. In the green house, a high humidity (80% or more) was kept by frequently spraying mist. After two and half month from this moving, a rooting rate was calculated from the number of rooted cuttings.
The culture was carried out in the same way as Example 12, except that an amount of 1% granule oxidized glutathione to be added to a composite soil (5.5 L) was set to 75 g.

[1] = test system: Mango (Mangifera Indica Linn. variety name: Irwin); experiment: Rooting of mango cuttings in rooting medium containing oxidized glutathione; format: in vivo; settings: one and half months
Text: A mango (Mangifera Indica Linn. variety name: Irwin) was used as a material of a cutting. Specifically, a cutting including one to three joints and one to five leaves was cut from a branch of a mother tree, and each leaf was partially cut off. Furthermore, the material was wounded by a cutter. The cutting was thus prepared.
The shoot thus obtained was washed with running water over night, and was dipped into an insecticide solution such as “Kotetsu”. Then the shoot had been planted to a supporter infiltrated with a four-diluted MS medium (Composition: ammonium nitrate of 412.5 mg/L, potassium nitrate of 475 mg/L, sodium dihydrogenphosphate of 42.52 mg/L, potassium iodide of 0.21 mg/L, etc. Note that a carbon source other than glutathione was not added to this medium.) to which the oxidized glutathione of 50 mg/L, STS (AgS4O6) of 5 μM serving as a silver ion source, ascorbic acid of 50 mg/L serving an antioxidant, and IBA of 10 mg/L serving as a plant hormone were added. In this case, natural soil such as sand and akadama soil; or a composite soil of vermiculite, perlite, peat moss, etc. was used as the supporter. […]
Ten to twenty shoots were planted per culture container. A rooting rate was calculated from the number of test pieces of the shoot and the number of shoots (the number of rooted shoots) which had been rooted after the foliage was cultured for one and half months.

Substance: oxidized glutathione
- Rooting rate (%) (E. uro-grandis A; Example 4: 50 mg/L solution, spraying to supporter (about 8.5 ml per pot), 44 test pieces): 75.0%
- Number of rooted shoots (E. uro-grandis A; Example 4: 50 mg/L, spraying to supporter, of 44 test pieces): 33
- Rooting rate (%) (E. uro-grandis A; Example 5: 200 mg/L, spraying to supporter, 44 test pieces): 77.3%
- Number of rooted shoots (E. uro-grandis A; Example 5: 200 mg/L, spraying to supporter, of 44 test pieces): 34
- Rooting rate (%) (E. uro-grandis A; Example 6: 500 mg/L, spraying to supporter, 44 test pieces): 84.1%
- Number of rooted shoots (E. uro-grandis A; Example 6: 500 mg/L, spraying to supporter, of 44 test pieces): 37
- Rooting rate (%) (E. uro-grandis A; Example 7: 1000 mg/L, spraying to supporter, 176 test pieces): 72.7%
- Number of rooted shoots (E. uro-grandis A; Example 7: 1000 mg/L, spraying to supporter, of 176 test pieces): 128
- Rooting rate (%) (Tea plant; Example 12: 3 mg/L in composite soil (15 g of 1% granule per 5.5 L)): 96.0%
- Number of rooted shoots (Tea plant; Example 12: 3 mg/L in composite soil): 443
- Rooting rate (%) (Tea plant; Example 13: 15 mg/L in composite soil (75 g of 1% granule per 5.5 L)): 99.6%
- Number of rooted shoots (Tea plant; Example 13: 15 mg/L in composite soil): 461
- Number of rooted shoots ([1]; Example 11: 50 mg/L in rooting medium, of 26 test pieces): 7
- Rooting rate (%) ([1]; Example 11: 50 mg/L, adding glutathione to rooting medium (with STS, ascorbic acid, IBA 10 mg/L), 26 test pieces): 26.9%

Source: US20140366440A1, “METHOD FOR PRODUCING CLONE SEEDLINGS” (OKAYAMA PREFECTURE, priority 2009, published 2014)
